Experimental data taken from ChEMBL document CHEMBL3994622, “Design and synthesis of new RAF kinase-inhibiting antiproliferative quinoline derivatives. Part 2: Diarylurea derivatives” (Eur J Med Chem, 2017).

How the values were obtained:
LOX IMVI = assay: Growth inhibition of human LOXIMVI cells incubated for 48 hrs by sulforhodamine B assay; assay type: functional
SK-MEL-28 = assay: Growth inhibition of human SK-MEL-28 cells incubated for 48 hrs by sulforhodamine B assay; assay type: functional; details: SK-MEL-28, 48 h
T47D = assay: Growth inhibition of human T47D cells incubated for 48 hrs by sulforhodamine B assay; assay type: functional
NCI-H322M = assay: Growth inhibition of human NCI-H322M cells incubated for 48 hrs by sulforhodamine B assay; assay type: functional
OVCAR-8 = assay: Growth inhibition of human OVCAR8 cells incubated for 48 hrs by sulforhodamine B assay; assay type: functional; details: OVCAR-8, 48 h
ACHN = assay: Growth inhibition of human ACHN cells incubated for 48 hrs by sulforhodamine B assay; assay type: functional
SW-620 = assay: Growth inhibition of human SW620 cells incubated for 48 hrs by sulforhodamine B assay; assay type: functional; details: SW-620, 48 h
UO-31 = assay: Growth inhibition of human UO31 cells incubated for 48 hrs by sulforhodamine B assay; assay type: functional; details: UO-31, 48 h
[1] = target: RAF proto-oncogene serine/threonine-protein kinase (Homo sapiens, UniProt P04049); assay: Inhibition of human c-RAF at 10 uM using MEK1 as substrate in presence of [33P]ATP by Hotspot assay relative to control
RAF proto-oncogene serine/threonine-protein kinase, sequence (P04049 whole entry): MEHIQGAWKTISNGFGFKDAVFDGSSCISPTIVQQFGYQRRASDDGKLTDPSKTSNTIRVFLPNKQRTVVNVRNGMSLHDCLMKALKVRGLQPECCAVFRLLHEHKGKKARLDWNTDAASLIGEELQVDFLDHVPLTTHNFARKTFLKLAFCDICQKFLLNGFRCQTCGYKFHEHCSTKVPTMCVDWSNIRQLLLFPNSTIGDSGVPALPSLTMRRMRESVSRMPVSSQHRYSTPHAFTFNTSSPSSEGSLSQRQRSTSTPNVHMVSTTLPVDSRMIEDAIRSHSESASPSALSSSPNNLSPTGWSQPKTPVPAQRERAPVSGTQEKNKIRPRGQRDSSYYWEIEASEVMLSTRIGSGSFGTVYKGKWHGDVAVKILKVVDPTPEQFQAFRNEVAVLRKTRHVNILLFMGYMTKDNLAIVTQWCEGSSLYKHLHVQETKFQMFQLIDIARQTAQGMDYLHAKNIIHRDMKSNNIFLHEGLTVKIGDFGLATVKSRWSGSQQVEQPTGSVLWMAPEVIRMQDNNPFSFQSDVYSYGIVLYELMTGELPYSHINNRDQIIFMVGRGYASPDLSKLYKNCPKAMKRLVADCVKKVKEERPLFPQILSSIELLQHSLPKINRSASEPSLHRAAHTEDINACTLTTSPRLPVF

A498 = assay: Growth inhibition of human A498 cells incubated for 48 hrs by sulforhodamine B assay; assay type: functional; details: A498, 48 h
OVCAR-5 = assay: Growth inhibition of human OVCAR5 cells incubated for 48 hrs by sulforhodamine B assay; assay type: functional; details: OVCAR-5, 48 h
RPMI-8226 = assay: Growth inhibition of human RPMI8226 cells incubated for 48 hrs by sulforhodamine B assay; assay type: functional; details: RPMI-8226, 48 h
NCI-H460 = assay: Growth inhibition of human NCI-H460 cells incubated for 48 hrs by sulforhodamine B assay; assay type: functional; details: NCI-H460, 48 h
MDA-MB-435 = assay: Growth inhibition of human MDA-MB-435 cells incubated for 48 hrs by sulforhodamine B assay; assay type: functional; details: MDA-MB-435, 48 h
HCC 2998 = assay: Growth inhibition of human HCC2998 cells incubated for 48 hrs by sulforhodamine B assay; assay type: functional; details: HCC 2998, 48 h
HCT-116 = assay: Growth inhibition of human HCT116 cells incubated for 48 hrs by sulforhodamine B assay; assay type: functional; details: HCT-116, 48 h
RXF 393 = assay: Growth inhibition of human RXF393 cells incubated for 48 hrs by sulforhodamine B assay; assay type: functional; details: RXF 393, 48 h
BT-549 = assay: Growth inhibition of human BT549 cells incubated for 48 hrs by sulforhodamine B assay; assay type: functional; details: BT-549, 48 h
U-251 = assay: Growth inhibition of human U251 cells incubated for 48 hrs by sulforhodamine B assay; assay type: functional; details: U-251, 48 h
SF-539 = assay: Growth inhibition of human SF539 cells incubated for 48 hrs by sulforhodamine B assay; assay type: functional; details: SF-539, 48 h
MDA-MB-231 = assay: Growth inhibition of human MDA-MB-231 cells incubated for 48 hrs by sulforhodamine B assay; assay type: functional; details: MDA-MB-231, 48 h
Malme-3M = assay: Growth inhibition of human MALME-3M cells incubated for 48 hrs by sulforhodamine B assay; assay type: functional
HCT-15 = assay: Growth inhibition of human HCT15 cells incubated for 48 hrs by sulforhodamine B assay; assay type: functional; details: HCT-15, 48 h
EKVX = assay: Growth inhibition of human EKVX cells incubated for 48 hrs by sulforhodamine B assay; assay type: functional
OVCAR-3 = assay: Growth inhibition of human OVCAR3 cells incubated for 48 hrs by sulforhodamine B assay; assay type: functional; details: OVCAR-3, 48 h
MOLT-4 = assay: Growth inhibition of human MOLT4 cells incubated for 48 hrs by sulforhodamine B assay; assay type: functional; details: MOLT-4, 48 h
A549 = assay: Growth inhibition of human A549/ATCC cells incubated for 48 hrs by sulforhodamine B assay; assay type: functional; details: A549, 48 h
SK-OV-3 = assay: Growth inhibition of human SKOV3 cells incubated for 48 hrs by sulforhodamine B assay; assay type: functional; details: SK-OV-3, 48 h
IGROV-1 = assay: Growth inhibition of human IGROV1 cells incubated for 48 hrs by sulforhodamine B assay; assay type: functional; details: IGROV-1, 48 h
SK-MEL-2 = assay: Growth inhibition of human SK-MEL-2 cells incubated for 48 hrs by sulforhodamine B assay; assay type: functional; details: SK-MEL-2, 48 h
OVCAR-4 = assay: Growth inhibition of human OVCAR4 cells incubated for 48 hrs by sulforhodamine B assay; assay type: functional; details: OVCAR-4, 48 h
HOP-92 = assay: Growth inhibition of human HOP92 cells incubated for 48 hrs by sulforhodamine B assay; assay type: functional; details: HOP-92, 48 h
[2] = read-out: LC50 (the source's name)

`COc1cc2cc(Oc3ccc(NC(=O)Nc4ccc(Cl)c(C(F)(F)F)c4)cc3)c(C)nc2cc1OC` showed a GI50 (LOX IMVI) of 1.22 µM, a TGI (LOX IMVI) of 4.16 µM and a CC50 (LOX IMVI; [2]) of 11.6 µM. The GI50 (SK-MEL-28) was 1.41 µM, the TGI (SK-MEL-28) was 5.45 µM and the CC50 (SK-MEL-28; [2]) was 14.4 µM. It also gave a GI50 (T47D) of 1.21 µM, a TGI (T47D) of 7.9 µM and a CC50 (T47D; [2]) of over 32.5 µM. For the same compound, the GI50 (NCI-H322M) was 2.05 µM, the TGI (NCI-H322M) was 6.28 µM and the CC50 (NCI-H322M; [2]) was 16.3 µM. For the same compound, the GI50 (OVCAR-8) was 1.04 µM, the TGI (OVCAR-8) was 4.55 µM and the CC50 (OVCAR-8; [2]) was over 32.5 µM. It also gave a GI50 (ACHN) of 1.07 µM, a TGI (ACHN) of 4 µM and a CC50 (ACHN; [2]) of 13.7 µM. For the same compound, the GI50 (SW-620) was 1.25 µM, the LC50 (SW-620) was 14 µM and the TGI (SW-620) was 4.57 µM. For the same compound, the GI50 (UO-31) was 0.924 µM, the TGI (UO-31) was 2.38 µM and the CC50 (UO-31; [2]) was 13.4 µM. For the same compound, the inhibition [1] was 99.7%, the GI50 (A498) was 0.754 µM and the TGI (A498) was 3.32 µM. For the same compound, the CC50 (A498; [2]) was 10.7 µM, the GI50 (OVCAR-5) was 1.93 µM and the TGI (OVCAR-5) was 6.22 µM. It also gave a CC50 (OVCAR-5; [2]) of 17.4 µM, a GI50 (RPMI-8226) of 0.636 to 0.64 µM and an LC50 (lethal concentration, 50% cell kill) (RPMI-8226) of over 32.5 µM. For the same compound, the TGI (RPMI-8226) was 1.65 µM, the GI50 (NCI-H460) was 1.07 µM and the TGI (NCI-H460) was 3.57 µM. It also gave a CC50 (NCI-H460; [2]) of 21.1 µM, a GI50 (MDA-MB-435) of 1.03 µM and a TGI (MDA-MB-435) of 4.71 µM. For the same compound, the CC50 (MDA-MB-435; [2]) was over 32.5 µM, the GI50 (HCC 2998) was 1.77 µM and the TGI (HCC 2998) was 5.48 µM. For the same compound, the CC50 (HCC 2998; [2]) was 13.6 µM, the GI50 (HCT-116) was 0.994 µM and the LC50 (50% lethal concentration) (HCT-116) was 14 µM. The TGI (HCT-116) was 3.84 µM, the GI50 (RXF 393) was 1.33 µM and the TGI (RXF 393) was 4.21 µM. The CC50 (RXF 393; [2]) was 15 µM, the GI50 (BT-549) was 0.981 µM and the TGI (BT-549) was 4.59 µM. It also gave a CC50 (BT-549; [2]) of 20.5 µM, a GI50 (U-251) of 1.03 µM and a TGI (U-251) of 3.78 µM. The CC50 (U-251; [2]) was 12.6 µM, the GI50 (SF-539) was 1.96 µM and the TGI (SF-539) was 8.39 µM. It also gave a CC50 (SF-539; [2]) of over 32.5 µM, a GI50 (MDA-MB-231) of 0.681 µM and a TGI (MDA-MB-231) of 1.84 µM. For the same compound, the CC50 (MDA-MB-231; [2]) was 9.6 µM, the GI50 (Malme-3M) was 1.33 µM and the TGI (Malme-3M) was 5.71 µM. The CC50 (Malme-3M; [2]) was over 32.5 µM, the GI50 (HCT-15) was 1.15 µM and the LC50 (lethal concentration, 50% net cell kill) (HCT-15) was 16.9 µM. The TGI (HCT-15) was 4.86 µM, the GI50 (EKVX) was 1.01 µM and the LC50 (concentration killing 50% of cells) (EKVX) was 17.6 µM. The TGI (EKVX) was 3.75 µM, the GI50 (OVCAR-3) was 1.16 µM and the TGI (OVCAR-3) was 4.45 µM. The CC50 (OVCAR-3; [2]) was 14 µM, the GI50 (MOLT-4) was 1.14 µM and the LC50 (MOLT-4) was over 32.5 µM. For the same compound, the TGI (MOLT-4) was 5.49 µM, the GI50 (A549) was 1 µM and the TGI (A549) was 4.16 µM. The CC50 (A549; [2]) was 15.1 µM, the GI50 (SK-OV-3) was 1.35 µM and the TGI (SK-OV-3) was 5.79 µM. The CC50 (SK-OV-3; [2]) was 31.5 µM, the GI50 (IGROV-1) was 2.34 µM and the TGI (IGROV-1) was 9.83 µM. For the same compound, the CC50 (IGROV-1; [2]) was over 32.5 µM, the GI50 (SK-MEL-2) was 0.799 to 0.8 µM and the TGI (SK-MEL-2) was 1.94 µM. For the same compound, the CC50 (SK-MEL-2; [2]) was 11 µM, the GI50 (OVCAR-4) was 1.37 µM and the TGI (OVCAR-4) was 6.1 µM. It also gave a CC50 (OVCAR-4; [2]) of 23.5 µM, a GI50 (HOP-92) of 0.682 µM and an LC50 (HOP-92) of 10.3 µM. The TGI (HOP-92) was 2.05 µM.
